Experimental data taken from patent US20240293394A1, “METHODS FOR TREATING ANTIPSYCHOTIC-INDUCED WEIGHT GAIN” (priority 2010, published 2024).
Where two headings read alike, the source gives them in different places.

What was measured:
[1] = patients; Taylor et al., Acta Psychiatr Scand. 2001; cited from earlier work
[2] = Olanzapine-related weight gain in female rats; type: in vivo
From the text: The rats were assigned to treatment groups using a random block design based on initial body weight.

ghrelin [3] = assay: Circulating ghrelin levels in conscious, unrestrained rats; type: in vivo; conditions: 10 mg/kg PO, two hours post administration
Protocol: To determine whether Compound1 and naltrexone have any effect on circulating levels of ghrelin, conscious, unrestrained rats (low stress model) were administered Compound 1 and nalrextone (10 mg/kg, PO). Blood samples were collected and analyzed by bioanalytical for circulating levels of ghrelin at 0, 15, 30, 60, and 120 minutes most administration.

[4] = Olanzapine-related changes (body weight, adipose tissue, serum chemistry) in female cynomolgus monkeys; type: in vivo
Protocol: Clinical observations and weight gain were assessed over a 28-day treatment period. […] Beginning two weeks prior to the study, monkeys were given ad libitum access to a highly palatable, high caloric diet. On the day prior to the start of treatment, monkeys were weighed and assigned to groups using a randomized block design based on body weight (BW); average BW across the 3 groups was 3.1+0.08 kg on the day of randomization. Also, baseline whole body CT scans were taken on the day prior to initiation of treatments. […] A second CT scan was conducted on day 29.

ghrelin [5] = conditions: known in literature; cited from earlier work
[6] = co-administration of Compound 1 0.4 mg/kg IM with olanzapine, serum, Day 28
[7] = olanzapine with Compound 1 0.4 mg/kg IM once daily, 28 days
[8] = olanzapine only, compared to the vehicle group

## O=C1CCc2ccc(OCCCCN3CCN(c4cccc(Cl)c4Cl)CC3)cc2N1 [aripiprazole, 7-[4-[4-(2,3-dichlorophenyl)piperazin-1-yl]butoxy]-3,4-dihydro-1H-quinolin-2-one]
[1]
  weight gain associated with atypical antipsychotic: less

## O=C1CC[C@@]2(O)[C@H]3Cc4ccc(O)c5c4[C@@]2(CCN3CC2CC2)[C@H]1O5 [naltrexone]
[2]; 2 mg/kg SC concurrent with afternoon olanzapine (1 mg/kg PO twice daily), 10 days
  effect on olanzapine-induced weight gain: did not affect olanzapine-induced weight gain
Ghrelin [3]
  circulating ghrelin levels: significantly greater circulating ghrelin levels than Compound 1

## NC(=O)c1ccc2c(c1O)[C@]13CCN(CC4CC4)[C@H](C2)[C@]1(O)CCC(=O)C3 [Compound 1]
[4]; [6]
  effect on olanzapine-induced elevation in LDL concentrations: prevented
  effect on olanzapine-induced elevation in TGs: prevented
[4]; co-administration of Compound 1 with olanzapine, 28 days
  effect on OLZ-induced changes (weight, adipose tissue accretion, TGs and LDLs): mitigated
[4]; [7]
  average body weight gain: 0.08 kg
  average body weight gain, % of Day 0 BW: 2.6%

## OCCOCCN1CCN(C2=Nc3ccccc3Sc3ccccc32)CC1 [quetiapine, 2-(2-(4-dibenzo[b,f][1,4]thiazepine-11-yl-1-piperazinyl)ethoxy)ethanol]
[1]
  weight gain associated with atypical antipsychotic: greatest

## Cc1cc2c(s1)Nc1ccccc1N=C2N1CCN(C)CC1 [olanzapine, 2-methyl-4-(4-methyl-1-piperazinyl)-10H-thieno[2,3-b][1,5]benzodiazepine]
[2]; olanzapine alone 1 mg/kg PO twice daily, 10 consecutive days, vs vehicle control
  weight gain (body weight): greater increases in weight gain
[4]; [8]
  adipose tissue gain (CT scan): gained relatively more adipose tissue compared to the vehicle group
  location of adipose tissue deposition (CT scan): more abdominal fat accretion
Ghrelin [5]
  circulating ghrelin levels: increases circulating ghrelin levels

## O=C1Cc2cc(CCN3CCN(c4nsc5ccccc45)CC3)c(Cl)cc2N1 [ziprasidone, 5-[2-[4-(1,2-benzisothiazol-3-yl)-1-piperazinyl]ethyl]-6-chloro-1,3-dihydro-2H-indol-2-one]
[1]
  weight gain associated with atypical antipsychotic: less
